Among the data in ChEMBL document CHEMBL3991601, “The target landscape of clinical kinase drugs” (Science, 2017) are Kd values, retold here.

The source made the active and inactive calls.

In assay [1] the target is STE20-like serine/threonine-protein kinase (Homo sapiens, UniProt Q9H2G2).
The target in assay [2] is T1, DNA replication licensing factor MCM4 (Homo sapiens, UniProt P33991).
T1 sequence (P33991 whole entry): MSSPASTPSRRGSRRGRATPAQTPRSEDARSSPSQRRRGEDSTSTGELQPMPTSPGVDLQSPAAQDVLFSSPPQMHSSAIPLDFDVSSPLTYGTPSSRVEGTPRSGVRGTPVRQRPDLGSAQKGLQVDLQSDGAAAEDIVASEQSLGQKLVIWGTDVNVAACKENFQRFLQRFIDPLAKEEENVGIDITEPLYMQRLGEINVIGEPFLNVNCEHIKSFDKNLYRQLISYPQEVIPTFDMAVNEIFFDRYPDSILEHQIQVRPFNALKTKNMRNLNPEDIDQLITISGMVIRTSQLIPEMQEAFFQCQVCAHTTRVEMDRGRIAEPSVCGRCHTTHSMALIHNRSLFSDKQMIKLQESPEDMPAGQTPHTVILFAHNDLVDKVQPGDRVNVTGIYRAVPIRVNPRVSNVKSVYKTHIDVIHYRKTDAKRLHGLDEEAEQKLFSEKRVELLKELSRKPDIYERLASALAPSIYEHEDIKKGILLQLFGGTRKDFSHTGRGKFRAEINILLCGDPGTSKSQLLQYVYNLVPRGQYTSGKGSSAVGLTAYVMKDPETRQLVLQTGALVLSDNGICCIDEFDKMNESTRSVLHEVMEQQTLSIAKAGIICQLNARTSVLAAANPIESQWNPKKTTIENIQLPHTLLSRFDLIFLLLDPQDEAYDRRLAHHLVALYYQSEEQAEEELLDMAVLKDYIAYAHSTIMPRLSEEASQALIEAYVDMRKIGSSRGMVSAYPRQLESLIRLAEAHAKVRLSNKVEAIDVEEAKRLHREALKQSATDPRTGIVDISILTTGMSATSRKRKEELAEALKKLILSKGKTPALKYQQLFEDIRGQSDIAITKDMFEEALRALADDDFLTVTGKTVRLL

In assay [3] the target is T2, Serine/threonine-protein kinase STK11 (Homo sapiens, UniProt Q15831).
T2 sequence (Q15831 whole entry): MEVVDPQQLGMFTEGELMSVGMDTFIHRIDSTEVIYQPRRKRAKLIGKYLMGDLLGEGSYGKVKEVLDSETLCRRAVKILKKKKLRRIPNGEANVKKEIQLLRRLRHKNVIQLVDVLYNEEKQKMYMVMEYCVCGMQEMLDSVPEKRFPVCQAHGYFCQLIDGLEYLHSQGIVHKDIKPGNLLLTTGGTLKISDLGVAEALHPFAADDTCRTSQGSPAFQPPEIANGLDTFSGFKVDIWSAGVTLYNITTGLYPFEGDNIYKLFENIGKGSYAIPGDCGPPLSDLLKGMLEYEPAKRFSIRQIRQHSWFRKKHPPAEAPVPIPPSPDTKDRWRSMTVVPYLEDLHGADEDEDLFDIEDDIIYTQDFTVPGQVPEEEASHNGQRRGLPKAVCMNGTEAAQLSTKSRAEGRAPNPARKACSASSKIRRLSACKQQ

Assay [4] concerns the target T3, Electron transfer flavoprotein subunit beta (Homo sapiens, UniProt P38117).
T3 sequence (P38117 whole entry): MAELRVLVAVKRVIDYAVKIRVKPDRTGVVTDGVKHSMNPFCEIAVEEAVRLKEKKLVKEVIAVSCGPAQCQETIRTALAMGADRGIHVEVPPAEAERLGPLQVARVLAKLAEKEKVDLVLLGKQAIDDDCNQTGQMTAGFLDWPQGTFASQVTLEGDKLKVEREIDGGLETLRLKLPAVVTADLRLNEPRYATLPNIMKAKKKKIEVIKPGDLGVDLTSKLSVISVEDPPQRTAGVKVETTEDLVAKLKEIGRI

The target of assay [5] is T4, Pyridoxal kinase (Homo sapiens, UniProt O00764).
T4 sequence (O00764 whole entry): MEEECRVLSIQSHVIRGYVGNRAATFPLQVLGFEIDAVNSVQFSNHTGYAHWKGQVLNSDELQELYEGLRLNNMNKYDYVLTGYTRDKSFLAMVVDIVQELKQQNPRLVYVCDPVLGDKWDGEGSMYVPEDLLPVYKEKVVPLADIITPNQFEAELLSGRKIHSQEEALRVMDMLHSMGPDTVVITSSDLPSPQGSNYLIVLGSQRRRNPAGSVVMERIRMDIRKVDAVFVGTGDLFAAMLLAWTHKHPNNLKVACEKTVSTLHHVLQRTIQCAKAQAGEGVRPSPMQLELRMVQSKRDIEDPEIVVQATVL

Assay [6] has as its target BMP-2-inducible protein kinase (Homo sapiens, UniProt Q9NSY1).
The target in assay [7] is T5, Cytochrome c1, heme protein, mitochondrial (Homo sapiens, UniProt P08574).
T5 sequence (P08574 whole entry): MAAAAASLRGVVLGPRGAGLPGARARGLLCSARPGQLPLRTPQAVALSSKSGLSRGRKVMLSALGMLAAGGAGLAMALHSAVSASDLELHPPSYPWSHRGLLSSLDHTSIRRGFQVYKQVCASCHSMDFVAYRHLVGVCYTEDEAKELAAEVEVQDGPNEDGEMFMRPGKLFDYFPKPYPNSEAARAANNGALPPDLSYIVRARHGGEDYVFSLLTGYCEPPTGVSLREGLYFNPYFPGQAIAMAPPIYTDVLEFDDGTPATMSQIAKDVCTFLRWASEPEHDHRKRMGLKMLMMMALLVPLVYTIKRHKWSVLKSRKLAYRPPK

Assay [8] addresses Tyrosine-protein kinase Fyn (Homo sapiens, UniProt P06241).
For assay [9], the target named is T6, Serine/threonine-protein kinase 3 (Homo sapiens, UniProt Q13188).
T6 sequence (Q13188 whole entry): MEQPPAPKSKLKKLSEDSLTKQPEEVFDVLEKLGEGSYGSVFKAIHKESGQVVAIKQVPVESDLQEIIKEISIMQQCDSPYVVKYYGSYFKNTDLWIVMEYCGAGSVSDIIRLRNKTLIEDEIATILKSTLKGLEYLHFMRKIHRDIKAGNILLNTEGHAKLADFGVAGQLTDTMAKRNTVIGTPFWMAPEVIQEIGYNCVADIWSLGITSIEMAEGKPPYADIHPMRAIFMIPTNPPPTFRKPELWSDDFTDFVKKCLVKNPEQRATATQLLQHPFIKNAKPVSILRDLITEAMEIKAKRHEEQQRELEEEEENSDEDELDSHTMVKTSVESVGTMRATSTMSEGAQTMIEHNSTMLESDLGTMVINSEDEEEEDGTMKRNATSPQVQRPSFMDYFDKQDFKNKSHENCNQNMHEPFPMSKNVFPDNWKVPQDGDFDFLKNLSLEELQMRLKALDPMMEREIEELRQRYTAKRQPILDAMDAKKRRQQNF

The target in assay [10] is Mitogen-activated protein kinase 8 (Homo sapiens, UniProt P45983).
Note: in the data inactive means no Kd found up to 30 µM.

Tyrosine-protein kinase Fyn, sequence (P06241 whole entry): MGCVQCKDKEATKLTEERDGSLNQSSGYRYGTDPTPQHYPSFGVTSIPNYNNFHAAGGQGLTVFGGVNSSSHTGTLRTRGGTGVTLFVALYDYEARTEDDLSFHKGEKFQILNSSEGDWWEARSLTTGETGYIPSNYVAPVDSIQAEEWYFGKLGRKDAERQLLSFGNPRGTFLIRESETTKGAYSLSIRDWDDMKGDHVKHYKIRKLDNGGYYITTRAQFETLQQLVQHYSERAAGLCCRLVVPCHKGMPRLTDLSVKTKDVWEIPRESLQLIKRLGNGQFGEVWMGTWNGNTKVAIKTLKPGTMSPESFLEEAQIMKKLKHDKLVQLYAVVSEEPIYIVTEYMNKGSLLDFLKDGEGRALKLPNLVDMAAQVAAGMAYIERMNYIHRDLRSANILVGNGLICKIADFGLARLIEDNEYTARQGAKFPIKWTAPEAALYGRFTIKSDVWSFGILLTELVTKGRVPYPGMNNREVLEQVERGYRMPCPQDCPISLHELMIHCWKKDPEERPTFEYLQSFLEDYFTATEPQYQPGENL
STE20-like serine/threonine-protein kinase, sequence (Q9H2G2 whole entry): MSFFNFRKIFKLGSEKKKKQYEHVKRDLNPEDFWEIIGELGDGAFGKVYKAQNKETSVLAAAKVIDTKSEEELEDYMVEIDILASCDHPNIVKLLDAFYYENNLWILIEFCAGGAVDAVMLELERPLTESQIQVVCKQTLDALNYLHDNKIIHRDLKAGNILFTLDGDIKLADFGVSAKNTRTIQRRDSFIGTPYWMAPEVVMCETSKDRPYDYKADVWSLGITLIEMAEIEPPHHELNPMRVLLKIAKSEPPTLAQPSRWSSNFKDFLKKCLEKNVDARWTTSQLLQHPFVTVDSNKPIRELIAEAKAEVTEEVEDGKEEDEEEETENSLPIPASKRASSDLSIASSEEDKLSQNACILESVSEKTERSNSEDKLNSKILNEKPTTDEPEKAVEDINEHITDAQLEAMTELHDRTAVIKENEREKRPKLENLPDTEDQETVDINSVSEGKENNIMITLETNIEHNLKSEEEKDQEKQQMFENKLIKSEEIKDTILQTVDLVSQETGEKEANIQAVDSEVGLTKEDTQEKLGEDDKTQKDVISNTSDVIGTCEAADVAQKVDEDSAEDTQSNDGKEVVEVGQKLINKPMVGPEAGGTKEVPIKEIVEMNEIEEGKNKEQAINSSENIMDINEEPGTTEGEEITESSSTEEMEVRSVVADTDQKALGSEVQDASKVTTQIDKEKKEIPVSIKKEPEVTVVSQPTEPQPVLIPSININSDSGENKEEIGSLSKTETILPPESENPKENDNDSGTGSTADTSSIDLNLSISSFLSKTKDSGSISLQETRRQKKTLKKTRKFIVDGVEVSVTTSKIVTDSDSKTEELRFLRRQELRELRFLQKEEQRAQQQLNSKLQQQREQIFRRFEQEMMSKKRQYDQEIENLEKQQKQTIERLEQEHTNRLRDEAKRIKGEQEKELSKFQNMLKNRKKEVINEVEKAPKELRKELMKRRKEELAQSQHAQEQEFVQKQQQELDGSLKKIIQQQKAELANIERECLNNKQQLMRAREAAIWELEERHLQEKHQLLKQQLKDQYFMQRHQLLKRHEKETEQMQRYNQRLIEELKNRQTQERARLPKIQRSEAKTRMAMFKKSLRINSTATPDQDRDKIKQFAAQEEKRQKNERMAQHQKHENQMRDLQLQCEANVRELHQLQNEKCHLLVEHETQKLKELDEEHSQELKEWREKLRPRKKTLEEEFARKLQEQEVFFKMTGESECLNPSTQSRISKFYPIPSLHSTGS
BMP-2-inducible protein kinase, sequence (Q9NSY1 whole entry): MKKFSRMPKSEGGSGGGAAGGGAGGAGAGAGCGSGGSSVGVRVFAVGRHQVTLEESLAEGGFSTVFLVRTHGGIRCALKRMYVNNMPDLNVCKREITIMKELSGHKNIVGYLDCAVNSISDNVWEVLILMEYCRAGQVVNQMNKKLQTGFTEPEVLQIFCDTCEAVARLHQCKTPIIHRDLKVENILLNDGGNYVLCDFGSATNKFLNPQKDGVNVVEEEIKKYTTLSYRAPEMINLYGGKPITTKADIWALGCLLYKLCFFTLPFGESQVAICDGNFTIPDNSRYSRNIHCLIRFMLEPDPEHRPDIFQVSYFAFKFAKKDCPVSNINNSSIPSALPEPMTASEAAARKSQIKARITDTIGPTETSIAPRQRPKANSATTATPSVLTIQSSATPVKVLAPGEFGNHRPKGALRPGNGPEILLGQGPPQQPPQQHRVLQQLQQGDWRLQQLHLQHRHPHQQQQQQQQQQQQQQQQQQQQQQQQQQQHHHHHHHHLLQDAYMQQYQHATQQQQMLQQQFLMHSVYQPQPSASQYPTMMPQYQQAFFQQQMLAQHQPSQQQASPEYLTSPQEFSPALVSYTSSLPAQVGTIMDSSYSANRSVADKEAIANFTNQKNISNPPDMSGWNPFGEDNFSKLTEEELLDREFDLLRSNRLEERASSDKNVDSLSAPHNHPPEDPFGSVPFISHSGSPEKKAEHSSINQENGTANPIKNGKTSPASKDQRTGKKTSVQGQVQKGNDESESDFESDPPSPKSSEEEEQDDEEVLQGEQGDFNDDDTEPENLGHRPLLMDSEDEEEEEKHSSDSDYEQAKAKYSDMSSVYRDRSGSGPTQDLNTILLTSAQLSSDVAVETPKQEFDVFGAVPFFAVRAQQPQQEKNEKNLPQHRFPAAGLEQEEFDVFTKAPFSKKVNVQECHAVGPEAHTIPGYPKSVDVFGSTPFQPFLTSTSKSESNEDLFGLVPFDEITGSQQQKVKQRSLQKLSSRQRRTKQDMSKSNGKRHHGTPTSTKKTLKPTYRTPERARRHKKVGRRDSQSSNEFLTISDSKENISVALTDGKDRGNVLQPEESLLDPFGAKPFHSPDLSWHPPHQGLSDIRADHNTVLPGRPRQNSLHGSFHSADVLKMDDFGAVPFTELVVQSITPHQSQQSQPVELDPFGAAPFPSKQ
Mitogen-activated protein kinase 8, sequence (P45983 whole entry): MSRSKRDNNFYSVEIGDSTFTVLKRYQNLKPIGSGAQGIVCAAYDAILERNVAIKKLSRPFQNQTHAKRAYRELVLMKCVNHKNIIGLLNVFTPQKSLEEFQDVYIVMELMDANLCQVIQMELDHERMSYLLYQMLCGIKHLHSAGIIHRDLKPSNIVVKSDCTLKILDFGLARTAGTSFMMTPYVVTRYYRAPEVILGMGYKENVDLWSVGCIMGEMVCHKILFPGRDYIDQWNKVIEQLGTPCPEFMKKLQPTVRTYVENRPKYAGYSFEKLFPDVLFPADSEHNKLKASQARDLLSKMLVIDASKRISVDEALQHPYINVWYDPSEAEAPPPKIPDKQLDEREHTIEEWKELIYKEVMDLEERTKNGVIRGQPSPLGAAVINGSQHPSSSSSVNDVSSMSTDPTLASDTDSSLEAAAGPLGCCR

`CCN(CCCOc1ccc2c(Nc3cc(CC(=O)Nc4cccc(F)c4)n[nH]3)ncnc2c1)CCOP(=O)(O)O` [BARASERTIB]: the Kd in assay [1], in [2], in assay [3], in [4], in assay [5] and in [6] was > 30 µM (inactive) in each case. Further, the Kd in [7] is > 30 µM (inactive).
Turning to `C=CCn1c(=O)c2cnc(Nc3ccc(N4CCN(C)CC4)cc3)nc2n1-c1cccc(C(C)(C)O)n1` [ADAVOSERTIB], the Kd in assay [1], in assay [2], in assay [3], in [4], in assay [5] and in assay [6] was > 30 µM (inactive) in each case. Further, the Kd in assay [7] is > 30 µM (inactive).
With `COc1cc2c(N3CCN(C(=O)Nc4ccc(OC(C)C)cc4)CC3)ncnc2cc1OCCCN1CCCCC1` [TANDUTINIB], the Kd in [2], in assay [4], in [5] and in [7] was > 30 µM (inactive) in each case.
Regarding `COc1cc2c(Oc3ccc4[nH]c(C)cc4c3F)ncnc2cc1OCCCN1CCCC1` [CEDIRANIB], the Kd in assay [2], in [4], in assay [5], in assay [8] and in assay [7] was > 30 µM (inactive) each time.
For the molecule `Cn1cnc2c(F)c(Nc3ccc(Br)cc3Cl)c(C(=O)NOCCO)cc21` [SELUMETINIB], the Kd in assay [2], in [4], in [5] and in assay [7] was > 30 µM (inactive) throughout.
For the molecule `CN(C)C/C=C/C(=O)Nc1cc2c(Nc3ccc(F)c(Cl)c3)ncnc2cc1O[C@H]1CCOC1` [AFATINIB], the Kd in assay [2], in assay [4], in [5] and in [7] was > 30 µM (inactive) each time.
Turning to `CN(c1ncccc1CNc1nc(Nc2ccc3c(c2)CC(=O)N3)ncc1C(F)(F)F)S(C)(=O)=O` [PF-00562271], the Kd in assay [2] is > 30 µM (inactive); in assay [3], 0.626 µM (active); in assay [4], > 30 µM (inactive); in [5], > 30 µM (inactive); in [7] it was > 30 µM (inactive).
For `CC(C)(O)CC(=O)NCCn1ccc2ncnc(Nc3ccc(Oc4cccc(C(F)(F)F)c4)c(Cl)c3)c21` [TAK-285], the Kd in [9], in assay [2], in assay [3], in assay [5], in [10] and in assay [6] was > 30 µM (inactive) in each case. Moreover, the Kd in assay [8] and in assay [7] was > 30 µM (inactive) each time.
With `CC1(C)CNc2cc(NC(=O)c3cccnc3NCc3ccncc3)ccc21` [MOTESANIB], the Kd in assay [1], in [2], in assay [4], in [5] and in assay [7] was > 30 µM (inactive) throughout.
As for `C[C@@]1(C(=O)Nc2ccc(F)nc2)CCCN1c1nc(Nc2cc(C3CC3)n[nH]2)c2cccn2n1` [BMS-754807], the Kd in [2], in assay [4], in assay [5] and in [7] was > 30 µM (inactive) each time.
For `O=S(=O)(c1cccc2cnccc12)N1CCCNCC1` [FASUDIL], the Kd in assay [2], in assay [3], in assay [4], in assay [5], in assay [8] and in [7] was > 30 µM (inactive) throughout.
`N#CCNC(=O)c1ccc(-c2ccnc(Nc3ccc(N4CCOCC4)cc3)n2)cc1` [MOMELOTINIB]: the Kd in assay [2], in assay [3], in assay [4], in [5], in [8] and in assay [7] was > 30 µM (inactive) each time.
`O[C@H]1CC[C@H](Nc2ncc3nc(Nc4c(F)cc(F)cc4F)n([C@H]4CCOC4)c3n2)CC1` [TANZISERTIB]: the Kd in assay [9], in [1], in [2], in assay [3], in assay [5] and in assay [6] was > 30 µM (inactive) in each case. In addition, the Kd in [8] and in [7] was > 30 µM (inactive) throughout.
For `C[C@]1(O)C[C@@H](c2nc(-c3ccc4ccc(-c5ccccc5)nc4c3)c3c(N)nccn32)C1` [LINSITINIB], the Kd in [2], in assay [3], in assay [4], in assay [5], in assay [6] and in assay [7] was > 30 µM (inactive) in each case.
`Cn1c(=O)n(-c2ccc(C(C)(C)C#N)cc2)c2c3cc(-c4cnc5ccccc5c4)ccc3ncc21` [DACTOLISIB]: the Kd in assay [9], in assay [1], in assay [2], in assay [3], in assay [4] and in [5] was > 30 µM (inactive) throughout. Moreover, the Kd in [6] and in assay [7] was > 30 µM (inactive) each time.
